Test results: patent EP4775219A1, “USE OF VIRUS 3C PROTEASE IN PREVENTION OR TREATMENT OF TUMOR” (Academy of Military Medical Sciences, priority 2023, dated 2025)

Columns and labels:
[1] = target: 3C protein in U87 MG cells (Enterovirus A71, UniProt B9VUU3); assay type: cell-based, EV71 or Coxsackievirus A14
Procedure: (§1) Rupintrivir (AG7088) is an effective, selective and irreversible 3C protease inhibitor. U87 MG cells and A172 cells were seeded in white-walled clear-bottom 96-well plates at a density of 1.0×10^4 per well, and cultured at 37°C with 5% CO2 for 24 hours. Subsequently, EV-3C-mRNA was diluted with Opti-MEM to final concentrations of 998.4 ng/ml, 499.2 ng/ml, 249.6 ng/ml, 124.8 ng/ml, 62.4 ng/ml, 31.2 ng/ml, and 15.6 ng/ml, and transfected into cells with Lipo2000 liposomes. Compound AG7088 was serially diluted with 2% cell maintenance medium and then added to the 96-well plates to final concentrations of 10µM, 1µM and 0µM, respectively. After 48h, the supernatant was discarded, and the diluted Cell-Titer Glo® Luminescent Cell Viability assay solution was added. The mixture was shaken for 5min in the dark to lyse the cells, followed by standing for 3min. Finally, the luminescence value of each well was measured using a microplate reader. Cell viability (%) = average value of experimental group/average value of cell control group × 100 [formula]
(§2) Data analysis: The inhibition rate-concentration curve was fitted to a sigmoidal curve using Origin9.0 software to calculate the half-maximal effective concentration (EC50) of AG7088 against 3C-mRNA. The half-cytotoxic concentration (CC50) of the compound was calculated using the same method.

[2] = in vitro; assay type: cell-based; conditions: human
Procedure: as §2

[3] = target: 3C protein in A172 cells (Enterovirus A71, UniProt B9VUU3); experiment: AG7088 blocking the inhibition of cell viability by EV-3C-mRNA; assay type: cell-based, EV71 or Coxsackievirus A14; conditions: inhibition of the decrease in cell viability caused by 3C-mRNA transfection
Procedure: as §1, §2

[4] = in vitro; assay type: cell-based; conditions: human; remark: listed apart in the source
Procedure: as §2

Sequence of 3C protein in U87 MG cells (B9VUU3 1549-1731, change not shown): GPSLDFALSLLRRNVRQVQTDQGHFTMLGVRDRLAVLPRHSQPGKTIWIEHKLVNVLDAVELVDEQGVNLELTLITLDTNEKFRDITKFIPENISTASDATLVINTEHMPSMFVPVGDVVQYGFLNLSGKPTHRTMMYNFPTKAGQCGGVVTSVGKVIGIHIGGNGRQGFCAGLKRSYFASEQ
Sequence of 3C protein in A172 cells (B9VUU3 1549-1731, change not shown): as above

Structure (SMILES): CCOC(=O)/C=C/[C@H](C[C@@H]1CCNC1=O)NC(=O)[C@@H](CC(=O)[C@@H](NC(=O)c1cc(C)on1)C(C)C)Cc1ccc(F)cc1 [AG7088, Rupintrivir]
- Viability of U87 cells (%) ([1]; AG7088 1µM + EV-3C-mRNA 31.2 ng/ml, 48h): 95.64±2%
- IC50 ([1]; inhibition of the decrease in cell viability caused by 3C-mRNA transfection, U87 MG cells): 1150 ± 190 nM
- CC50 [2]: > 100000 nM
- IC50 [3]: 439 ± 30 nM
- CC50 [4]: > 100000 nM
